28 compounds from US6825236B2, “Colchicine derivatives” (California Pacific Medical Center, priority 2003, dated 2004) can be followed below.

Structures are written as SMILES.

For this experiment, the system named is HCT116. Description: Cell colony formation assay. The class given is cell-based. As to conditions: 72 hours with drug, colonies counted after 7 days. On the procedure: This example provides directions for growing cells and testing compounds of the invention for their effect on the growth of the cells. All cells were purchased from DCTDC Tumor Repository, NCI, NIH.
Cell Colony Formation Assay
Four hundred cells (HCT 116, PC-3) or five hundred cells (VM46) were plated in 60 mm Petri dishes containing 2.7 ml of medium (modified McCoy's 5a medium) containing 10% fetal bovine serum and 100 units/ml penicillin and […] streptomycin. The cells were incubated in a CO2 incubator at 37° C. for 5 hours for attachment to the bottom of Petri dishes. Drugs were made fresh in medium at ten times the final concentration, and then 0.3 ml of this stock solution was added to the 2.7 ml of medium in the dish. The cells were then incubated with drugs for 72 hours at 37° C. At the end of the incubation the drug-containing media were decanted, the dishes were rinsed with 4 ml of Hank's Balance Salt Solution (HBSS), 5 ml of fresh medium was added, and the dishes were returned to the incubator for colony formation. The cell colonies were counted using colony counter after incubation for 7 days for HCT116 cells and PC-3 cells and 8 days for VM46 cells, respectively.
Values of ID50 (the drug concentration producing 50% inhibition of colony formation) may be determined for each tested compound. The directions described in this example may be used in other cells, such as DU-145.

On to `COc1cc2c(c(OC)c1OC)-c1ccc(SC)c(=O)cc1C(NC(=O)c1ccc3c(c1)C(=O)c1ccccc1C3=O)CC2` (stereo not shown) [Compound 000908, N-Deacetyl-N-(anthraquinone-2-carbonyl)thiocolchicine], for which the “Survival (%) of HCT116” value is 100% (10 nM) and 0% (100 nM).
On to `COc1cc2c(c(OC)c1OC)-c1ccc(SC)c(=O)cc1C(NC(=O)CCC(=O)c1ccc(Br)cc1)CC2` (stereo not shown) [Compound 000926, N-Deacetyl-N-(3-[4-bromobenzoyl]propionyl)thiocolchicine], for which the “Survival (%) of HCT116” value (10 nM) is 100% and the “Survival (%) of HCT116” value (100 nM) came to 0%.
`COc1cc2c(c(OC)c1OC)-c1ccc(SC)c(=O)cc1C(NC(=O)CCN1C(=O)c3ccccc3C1=O)CC2` (stereo not shown) [Compound 000925, N-Deacetyl-N-(3-phthalimidopropionyl)thiocolchicine]: the “Survival (%) of HCT116” value by setting is: (10 nM) 98.67%; (100 nM) 0%.
In the case of `COc1cccc(OCC(=O)NC2CCc3cc(OC)c(OC)c(OC)c3-c3ccc(SC)c(=O)cc32)c1` (stereo not shown) [Compound 001024, N-Deacetyl-N-(3-methoxyphenoxyacetyl)thiocolchicine], the “Survival (%) of HCT116” value is reported as 98.0% (10 nM) and 0% (100 nM).
For `COc1cc2c(c(OC)c1OC)-c1ccc(SC)c(=O)cc1C(NC(=O)CSc1ccc(Cl)cc1)CC2` (stereo not shown) [Compound 000921, N-Deacetyl-N-[(4-chlorophenylthio)acetyl]thiocoichicine], the “Survival (%) of HCT116” value reads like this: (10 nM) 96.18%; (100 nM) 0%.
Turning to `COc1cc2c(c(OC)c1OC)-c1ccc(SC)c(=O)cc1C(NC(=O)CSc1cc(C)c(Cl)cc1Cl)CC2` (stereo not shown) [Compound 000831], the “Survival (%) of HCT116” value (100 nM) is 89.15%.
`CCC(=C(CC)c1ccc(OCC(=O)NC2CCc3cc(OC)c(OC)c(OC)c3-c3ccc(SC)c(=O)cc32)cc1)c1ccc(OCC(=O)NC2CCc3cc(OC)c(OC)c(OC)c3-c3ccc(SC)c(=O)cc32)cc1` (stereo not shown) [Compound 000828, Dimer of N-Deacetylthiocolchicine]: under “100 nM”, the “Survival (%) of HCT116” value is 93.81%.
Consider `COc1cc2c(c(OC)c1OC)-c1ccc(SC)c(=O)cc1C(NC(=O)COc1ccc(OC(F)(F)F)cc1)CC2` (stereo not shown) [Compound 001213, N-Deacetyl-N-(4-trifluoromethoxyphenoxyacetyl)thiocolchicine], for which the “Survival (%) of HCT116” value (100 nM) was 62.56%.
Take `COc1cc2c(c(OC)c1OC)-c1ccc(SC)c(=O)cc1[C@@H](NC(=O)c1cn(C)c3nc(C)ccc3c1=O)CC2` [Compound 000920, N-Deacetyl-N-(1,7-dimethylnaphthyridin-4-one-3-carboxy)thiocolchicine]: the “Survival (%) of HCT116” value (100 nM) worked out at 95.68%.
Consider `COc1cc2c(c(OC)c1OC)-c1ccc(SC)c(=O)cc1C(NC(=O)CSc1ccncc1)CC2` (stereo not shown) [Compound 000922, N-Deacetyl-N-(4-pyridylthioacetyl)thiocolchicine], for which the “Survival (%) of HCT116” value (1 nM) was 100%, the “Survival (%) of HCT116” value (10 nM) is 0% and the “Survival (%) of HCT116” value (100 nM) was 0%.
Take `COc1cc2c(c(OC)c1OC)-c1ccc(SC)c(=O)cc1C(NC(=O)COc1c(I)cc(C#N)cc1I)CC2` (stereo not shown) [Compound 001229, N-Deacetyl-N-(2,6-diiodo-4-cyanophenoxyacetyl)thiocolchicine]: the “Survival (%) of HCT116” value (10 nM) is listed as 100% and the “Survival (%) of HCT116” value (100 nM) came to 0%.
As to `COc1cc2c(c(OC)c1OC)-c1ccc(SC)c(=O)cc1C(NC(=O)CCN1CCN(c3cccc(C(F)(F)F)c3)CC1)CC2` (stereo not shown) [Compound 001227, N-Deacetyl-N-(3-(4-[3-trifluoromethylphenyl]piperazinyl)propionyl)thiocolchicine], the “Survival (%) of HCT116” value is, setting by setting: (10 nM) 100%; (100 nM) 0%.
In the case of `COc1cc2c(c(OC)c1OC)-c1ccc(SC)c(=O)cc1[C@@H](NC(=O)COc1cc(C(F)(F)F)cc(C(F)(F)F)c1)CC2` [Compound 001207, N-Deacetyl-N-(3,5-di-trifluoromethylphenoxyacetyl)thiocolchicine], the “Survival (%) of HCT116” value (100 nM) was determined as 3.10%.
As for `COc1cc2c(c(OC)c1OC)-c1ccc(SC)c(=O)cc1C(NC(=O)COc1ccc(C#N)c(F)c1)CC2` (stereo not shown) [Compound 001106, N-Deacetyl-N-(3-fluoro-4-cyanophenoxyacetyl)thiocoichicine], the “Survival (%) of HCT116” value came to 98.51% (10 nM) and 0% (100 nM).
For `COc1cc2c(c(OC)c1OC)-c1ccc(SC)c(=O)cc1[C@@H](NC(=O)COc1ccc([N+](=O)[O-])cc1)CC2` [Compound 001127, N-Deacetyl-N-(4-nitrophenoxyacetyl)thiocolchicine], the “Survival (%) of HCT116” value turned out to be 75.37% (10 nM) and 0% (100 nM).
With `COc1cc2c(c(OC)c1OC)-c1ccc(SC)c(=O)cc1[C@@H](NC(C)=O)CC2` [Thiocolchicine, thiocolchicine, reference compound], the “Survival (%) of HCT116” value (1 nM) came out at 100%, the “Survival (%) of HCT116” value (10 nM) worked out at 0% and the “Survival (%) of HCT116” value (100 nM) is on record as 0%.
Turning to `COc1cccc(N2CCN(CCC(=O)NC3CCc4cc(OC)c(OC)c(OC)c4-c4ccc(SC)c(=O)cc43)CC2)c1` (stereo not shown) [Compound 001225, N-Deacetyl-N-(4-[3-methoxyphenyl]-piperazinylpropionyl)thiocolchicine], the “Survival (%) of HCT116” value is 80.5% (10 nM) and 0% (100 nM).
`COc1cc2c(c(OC)c1OC)-c1ccc(SC)c(=O)cc1C(NC(=O)CCc1cccnc1)CC2` (stereo not shown) [Compound 000901, N-Deacetyl-N-(3-pyridinepropionyl)thiocolchicine]: the “Survival (%) of HCT116” value is given as 61.60% (10 nM) and 0% (100 nM).
For `COc1cc2c(c(OC)c1OC)-c1ccc(SC)c(=O)cc1C(NC(=O)c1ccc(N3C(=O)c4ccccc4C3=O)cc1)CC2` (stereo not shown) [Compound 001114, N-Deacetyl-N-(4-phthalimidobenzoyl)thiocolchicine], the “Survival (%) of HCT116” value (100 nM) is reported as 95.05%.
Take `COc1cc2c(c(OC)c1OC)-c1ccc(SC)c(=O)cc1C(NC(=O)Cn1cnnn1)CC2` (stereo not shown) [Compound 000918, N-Deacetyl-N-(1H-tetrazole-1-acetyl)thiocolchicine]: the “Survival (%) of HCT116” value (100 nM) worked out at 13.61%.
`COc1cc2c(c(OC)c1OC)-c1ccc(SC)c(=O)cc1C(NC(=O)COc1c(F)c(F)c(F)c(F)c1F)CC2` (stereo not shown) [Compound 000912, N-Deacetyl-N-(2,3,4,5,6-pentafluorophenoxyacetyl)thiocolchicine]: the “Survival (%) of HCT116” value (10 nM) amounted to 100% and the “Survival (%) of HCT116” value (100 nM) was 0.50%.
In the case of `CCC(=C(CC)c1ccc(OCC(=O)NC2CCc3cc(OC)c(OC)c(OC)c3-c3ccc(SC)c(=O)cc32)cc1)c1ccc(OCC(=O)NC2CCc3cc(OC)c(OC)c(OC)c3-c3ccc(SC)c(=O)cc32)cc1` (stereo not shown) [Compound 000927, Dimer of N-Deacetylthiocolchicine], the “Survival (%) of HCT116” value is 100% (10 nM) and 0% (100 nM).
`COc1cc2c(c(OC)c1OC)-c1ccc(SC)c(=O)cc1C(NC(=O)Cn1cc(C)c(=O)[nH]c1=O)CC2` (stereo not shown) [Compound 000905, N-Deacetyl-N-(thymine-1-acetyl)thiocolchicine]: the “Survival (%) of HCT116” value (100 nM) was determined as 96.66%.
With `COc1cc2c(c(OC)c1OC)-c1ccc(SC)c(=O)cc1C(NC(=O)C(C)ON=C1c3cc([N+](=O)[O-])cc([N+](=O)[O-])c3-c3c1cc([N+](=O)[O-])cc3[N+](=O)[O-])CC2` (stereo not drawn) [Compound 000913, N-Deacetyl-N-[(+)-2-(2,4,5,7-tetranitro-9-fluorenylideneaminooxy)propionyl]thiocolchicine], the “Survival (%) of HCT116” value is listed as 90.91% (10 nM) and 1.00% (100 nM).
With `COc1cc2c(c(OC)c1OC)-c1ccc(SC)c(=O)cc1C(NC(=O)COc1ccnc3ccccc13)CC2` (stereo not shown) [Compound 001201, N-Deacetyl-N-(quinoline-4-oxyacetyl)thiocolchicine], the “Survival (%) of HCT116” value (100 nM) is 95.07%.
Regarding `COc1cc2c(c(OC)c1OC)-c1ccc(SC)c(=O)cc1C(NC(=O)C1CCCN1C(=O)OC(C)(C)C)CC2` (stereo not shown) [Compound 000915, N-Deacetyl-N-(1-t-butoxycarbonyl-2-pyrrolidinecarbonyl)thiocolchicine], the “Survival (%) of HCT116” value (100 nM) was found to be 70.12%.
As for `COc1cc2c(c(OC)c1OC)-c1ccc(SC)c(=O)cc1C(NC(=O)N1c3ccccc3Sc3ccccc31)CC2` (stereo not shown) [Compound 000928, N-Deacetyl-N-(phenothiazin-10-ylcarbonyl)thiocolchicine], the “Survival (%) of HCT116” value (100 nM) was found to be 100%.
Take `COc1cc2c(c(OC)c1OC)-c1ccc(SC)c(=O)cc1[C@@H](NC(=O)COc1ccc([N+](=O)[O-])c(C(F)(F)F)c1)CC2` [Compound 001107, N-Deacetyl-N-(3-trifluoromethyl-4-nitropbenoxyacetyl)thiocolchicine]: the “Survival (%) of HCT116” value (100 nM) is on record as 100%.
